Assay results as given in PubChem BioAssay (NCI).
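The compound was tested at five concentrations on cells cultured in 96-well plates, with a 48-hour exposure period. GI50 is the concentration that inhibits growth by half. TGI marks complete inhibition of growth.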

Columns and labels:
Assay in all cases: NCI tumour cell line growth inhibition, 48 h
PC-3 prostate = tested on: PC-3 prostate
RXF 393 renal = tested on: RXF 393 renal
UACC-257 melanoma = tested on: UACC-257 melanoma
SF-295 CNS = tested on: SF-295 CNS
NCI-H460 lung = tested on: NCI-H460 lung
SK-OV-3 ovarian = tested on: SK-OV-3 ovarian
SNB-75 CNS = tested on: SNB-75 CNS
UO-31 renal = tested on: UO-31 renal
SF-268 CNS = tested on: SF-268 CNS
EKVX NSCLC = tested on: EKVX NSCLC
MOLT-4 leukemia = tested on: MOLT-4 leukemia
NCI-H226 lung = tested on: NCI-H226 lung
CCRF-CEM leukemia = tested on: CCRF-CEM leukemia
MALME-3M melanoma = tested on: MALME-3M melanoma
DU-145 prostate = tested on: DU-145 prostate
NCI-H522 lung = tested on: NCI-H522 lung
LOX IMVI melanoma = tested on: LOX IMVI melanoma
RPMI-8226 leukemia = tested on: RPMI-8226 leukemia
SR leukemia = tested on: SR leukemia
SK-MEL-2 melanoma = tested on: SK-MEL-2 melanoma
ACHN renal = tested on: ACHN renal
NCI-H23 lung = tested on: NCI-H23 lung
OVCAR-8 ovarian = tested on: OVCAR-8 ovarian
MDA-MB-231 breast = tested on: MDA-MB-231 breast
HT29 colon = tested on: HT29 colon
KM12 colon = tested on: KM12 colon
MCF7 breast = tested on: MCF7 breast
786-0 renal = tested on: 786-0 renal
SW-620 colon = tested on: SW-620 colon

N[C@H]1C[C@@H]1c1ccc(-c2cccc(O)c2)cc1
GI50 (PC-3 prostate): 26.4 µM
TGI (PC-3 prostate): > 100 µM
GI50 (RXF 393 renal): 17.1 µM
TGI (RXF 393 renal): > 100 µM
GI50 (UACC-257 melanoma): 23.4 µM
TGI (UACC-257 melanoma): 63.8 µM
GI50 (SF-295 CNS): 28.1 µM
TGI (SF-295 CNS): > 100 µM
GI50 (NCI-H460 lung): 45.9 µM
TGI (NCI-H460 lung): > 100 µM
GI50 (SK-OV-3 ovarian): 25.1 µM
TGI (SK-OV-3 ovarian): > 100 µM
GI50 (SNB-75 CNS): 11.7 µM
TGI (SNB-75 CNS): 49 µM
GI50 (UO-31 renal): 17.7 µM
TGI (UO-31 renal): 82.4 µM
GI50 (SF-268 CNS): 27.5 µM
TGI (SF-268 CNS): > 100 µM
GI50 (EKVX NSCLC): 27.2 µM
TGI (EKVX NSCLC): > 100 µM
GI50 (MOLT-4 leukemia): 22.3 µM
TGI (MOLT-4 leukemia): 74.5 µM
GI50 (NCI-H226 lung): > 100 µM
TGI (NCI-H226 lung): > 100 µM
GI50 (CCRF-CEM leukemia): 29.3 µM
TGI (CCRF-CEM leukemia): > 100 µM
GI50 (MALME-3M melanoma): 14.2 µM
TGI (MALME-3M melanoma): 44.9 µM
GI50 (DU-145 prostate): 42.2 µM
TGI (DU-145 prostate): > 100 µM
GI50 (NCI-H522 lung): 15 µM
TGI (NCI-H522 lung): 35.1 µM
GI50 (LOX IMVI melanoma): 14.8 µM
TGI (LOX IMVI melanoma): 29.7 µM
GI50 (RPMI-8226 leukemia): 19 µM
TGI (RPMI-8226 leukemia): 63 µM
GI50 (SR leukemia): 24.7 µM
TGI (SR leukemia): 65.2 µM
GI50 (SK-MEL-2 melanoma): 19 µM
TGI (SK-MEL-2 melanoma): 52.6 µM
GI50 (ACHN renal): 23.2 µM
TGI (ACHN renal): 93.3 µM
GI50 (NCI-H23 lung): 37.6 µM
TGI (NCI-H23 lung): > 100 µM
GI50 (OVCAR-8 ovarian): 34 µM
TGI (OVCAR-8 ovarian): > 100 µM
GI50 (MDA-MB-231 breast): 17.6 µM
TGI (MDA-MB-231 breast): 44 µM
GI50 (HT29 colon): 34.7 µM
TGI (HT29 colon): > 100 µM
GI50 (KM12 colon): 29.2 µM
TGI (KM12 colon): 93.4 µM
GI50 (MCF7 breast): 22.9 µM
TGI (MCF7 breast): > 100 µM
GI50 (786-0 renal): 29.6 µM
TGI (786-0 renal): > 100 µM
GI50 (SW-620 colon): 32.1 µM
TGI (SW-620 colon): > 100 µM
